Where a name gives a salt, the structure may show the parent alone.
Assays:
[1] = system: COVID-19 patients with hypertension; details: oral administration; cited from earlier work
[2] = system: Huh7 cells
[3] = system: patients with Chronic obstructive pulmonary disease (COPD); details: nasal spray
[4] = system: SARS-COV-2 (USA-WA1/2020); details: Huh7 cells, MOI 0.1, 6.25, 12.5, 25 and 50 uM, compared to DMSO, 48 hours after infection

Structure (SMILES): CCOC(=O)C1=C(COCCN)NC(C)=C(C(=O)OC)C1c1ccccc1Cl (stereo not shown) [amlodipine besylate]
- case fatality rate of patients with hypertension [1]: distinctly reduced

Structure (SMILES): COc1ccc(CCN(C)CCCC(C#N)(c2ccc(OC)c(OC)c2)C(C)C)cc1OC (stereo not shown) [verapamil hydrochloride]
- toxicity against Huh7 cells [2]: no significant toxicity
- blood oxygen pressure [3]: improved
- correction of blood pH [3]: improved
- oxygen saturation after inhalation ([3]; after inhalation): 95.75±14.57
- oxygen saturation before inhalation ([3]; baseline): 91.2±12.15
- viral RNA in the supernatant [4]: dose-dependent reduction

Reference: patent US11938110B2, “Use of verapamil for the treatment of SARS-Cov-2 induced COVID-19” (priority 2020, dated 2024)
